The results in this text go back to US20260166150A1, “CRYSTAL FORM OF NK3R ANTAGONIST, AND PREPARATION METHOD THEREFOR AND USE THEREOF” (CHANGCHUN GENESCIENCE PHARMACEUTICAL CO., LTD., priority 2022, published 2026).

Data set [1] can be described thus: DVS hygroscopicity test at 25° C. The class given is physicochemical. On the procedure: • DVS curve is collected on DVS Intrinsic of SMS (Surface Measurement Systems) Relative humidity at 25° C. is calibrated based on deliquescent points of LiCl, Mg(NO3)2, and KCl. • Temperature: 25° C.; • Sample amount: 10-20 mg; • Protecting gas and flow rate: N2, 200 mL/min; • dm/dt: 0.002%/min; • Minimum dm/dt equilibration time: 10 min; • Maximum equilibration time: 180 min; • RH range: 0% RH-95% RH-0% RH; • RH gradient: 10% RH (0% RH-90% RH & 90% RH-0% RH); 5% RH (90% RH-95% RH & 95% RH-90% RH)

A short description of data set [2]: Solid-state stability evaluation (open storage, XRPD and HPLC). The class given is physicochemical. On the procedure:
Waters H-Class ultra performance liquid chromatograph is used to collect solubility and purity data of the items.
An appropriate amount of sample was weighed, kept open at 60° C. for 1 day, as well as kept open at 25° C./60% RH and kept open at 40° C./75% RH for 1 week and 4 weeks respectively. Then, the sample was characterized by XRPD and HPLC to detect changes in the crystal form and chemical purity.

In the next data set the target is T1, human NK-3 receptor (Homo sapiens, UniProt P29371).
T1 construct: expressed in transfected cells; host or cells: HEK293 (stably transfected human NK-3R/HEK293)
T1 sequence (P29371 1-465): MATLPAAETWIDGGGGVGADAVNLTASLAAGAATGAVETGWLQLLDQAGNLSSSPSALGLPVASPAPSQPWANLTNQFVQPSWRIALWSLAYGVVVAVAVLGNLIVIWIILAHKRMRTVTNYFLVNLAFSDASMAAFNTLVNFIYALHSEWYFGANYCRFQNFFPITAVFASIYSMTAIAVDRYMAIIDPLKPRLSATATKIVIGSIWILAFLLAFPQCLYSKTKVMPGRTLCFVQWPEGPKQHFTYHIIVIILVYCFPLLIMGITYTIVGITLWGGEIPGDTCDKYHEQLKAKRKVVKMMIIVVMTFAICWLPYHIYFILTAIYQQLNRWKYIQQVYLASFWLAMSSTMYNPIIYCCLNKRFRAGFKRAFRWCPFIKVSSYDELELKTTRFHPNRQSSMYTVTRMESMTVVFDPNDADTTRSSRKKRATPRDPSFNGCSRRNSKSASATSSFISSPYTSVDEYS
As to the kind of experiment: Antagonistic activity on human NK-3 receptor, FLIPR calcium assay in stably transfected human NK-3R/HEK293 cells. The class given is cell-based.

The structures appear in SMILES notation.

Turning to `Cc1nsc(-c2nc(N3CCCC3=O)c3n2CCN(C(=O)c2ccc(F)cc2)[C@@H]3C)n1` [Crystal form A of free base, (R)-1-(7-(4-fluorobenzoyl)-8-methyl-3-(3-methyl-1,2,4-thiadiazol-5-yl)-5,6,7,8-tetrahydroimidazo[1,5-a]pyrazin-1-yl)pyrrolidin-2-one], the moisture adsorption entry in data set [1] (25° C./80% RH, DVS) was “about 0.15%”. Also, the “hygroscopicity (in words)” value in data set [1] (DVS, 25° C.) was “almost non-hygroscopic”. The “crystal form before and after DVS testing (XRPD)” value in data set [1] (XRPD before and after DVS) is “did not change in the crystal form”. Moreover, the “HPLC Relative purity %” value in data set [2] (25° C./60% RH, 1 week, open) is 99.9%; in data set [2] (25° C./60% RH, 4 weeks, open) it was 99.9%; in data set [2] (40° C./75% RH, 1 week, open), 99.9%; in data set [2] (40° C./75% RH, 4 weeks, open), 99.9%; in data set [2] (60° C., 1 day, open) it was 99.9%. Also, the “HPLC purity Area %” value is 99.48% in data set [2] (25° C./60% RH, 1 week, open); 99.45% in data set [2] (25° C./60% RH, 4 weeks, open); 99.49% in data set [2] (40° C./75% RH, 1 week, open); 99.49% in data set [2] (40° C./75% RH, 4 weeks, open); 99.49% in data set [2] (60° C., 1 day, open). In data set [2] (60° C. 1 day, 25° C./60% RH and 40° C./75% RH, 1 week and 4 weeks, open), the “change of purity after storage” value is < 0.2 %, area %. The “physicochemical stability (in words)” value in data set [2] (all evaluated storage conditions) was “good physicochemical stability”.
Turning to `Cc1nsc(-c2nc(N3CCCC3=O)c3n2CCN(C(=O)c2ccc(F)cc2)[C@@H]3C)n1` [Compound represented by formula (I), (R)-1-(7-(4-fluorobenzoyl)-8-methyl-3-(3-methyl-1,2,4-thiadiazol-5-yl)-5,6,7,8-tetrahydroimidazo[1,5-a]pyrazin-1-yl)pyrrolidin-2-one], the “NK-3 receptor antagonism (in words)” value at human NK-3 receptor (conclusion from IC50 data) was “potent NK-3 receptor antagonist”. Besides, at human NK-3 receptor (human NK-3R/HEK293 cells, agonist Neurokinin B, FLIPR), the 50% inhibitory concentration (IC50) amounted to 12.1 nM.
